Measurements taken from patent US9676715B2, “Bis-indolic derivatives, a process for preparing the same and their uses as a drug” (UNIVERSITE JOSEPH FOURIER, priority 2011, dated 2017).
Converted amounts (≈) assume the structure as drawn.

How the values were obtained:
[1] = tested on: HCT116 (human colon tumor); test: In vitro cytotoxicity; type: cell-based; details: HCT-116, HCT116, from 100 μM to 0.005 μM in DMSO, duplicate
S. aureus SA-1199B = test: MIC, microdilution method (9.1); type: cell-based, Staphylococcus aureus; details: Staphylococcus aureus, SA1199B, 18 h
Description: (§1) The microdilution method recommended by the Clinical and Laboratory Standard Institute [M07-A8, Vol. 29, No. 2] was used. The activity of indolic compounds was tested against 29 bacterial strains belonging to 17 different species and 12 different genera (Staphylococcus, Streptococcus, Enterococcus, Listeria, Bacillus, Haemophilus, Escherichia, Klebsiella, Enterobacter, Serratia, Pseudomonas, and Acinetobacter). Bacterial inocula were prepared in Mueller Hinton broth (MH2, bioMérieux, Marcy L'Etoile, France), supplemented with 10% sheep blood for fastidious species (i.e., Streptococcus pneumoniae and Haemophilus influenzae). They were dispensed in 96 well microtiter plates (5×10^5 CFU/ml of final inoculum). Indolic compounds were added to the wells as to obtain two-fold serial concentrations (0.50-128 mg/L of final concentrations). Plates were incubated at 37° C. in ambient air, or at 37° C. in 5% CO2 enriched atmosphere for fastidious species. […] Drug-free cultures served as growth controls. Cultures receiving gentamicin, ciprofloxacin or cefotaxime served as positive controls.

S. aureus CIP 103428 = test: MIC, microdilution method (9.1); type: cell-based, Staphylococcus aureus; details: Staphylococcus aureus, CIP103428, read after 18 h, read-out: MIC
Description: as §1

S. aureus ATCC 9144 = test: MIC, microdilution method (9.1); type: cell-based, Staphylococcus aureus; details: Staphylococcus aureus, ATCC9144, read after 18 h, read-out: MIC
Description: as §1

[2] = tested on: S. aureus CIP 65.25 (MRSA); test: MIC, microdilution method (9.1); type: cell-based, Staphylococcus aureus; details: Staphylococcus aureus, read after 18 h, read-out: MIC
Description: as §1

S. aureus ATCC 25923 = test: MIC, microdilution method (9.1); type: cell-based, Staphylococcus aureus; details: Staphylococcus aureus, ATCC25923, read after 18 h, read-out: MIC
Description: as §1

S. aureus ATCC 29213 = test: MIC, microdilution method (9.1); type: cell-based, Staphylococcus aureus; details: Staphylococcus aureus, ATCC29213, read after 18 h, read-out: MIC
Description: as §1

S. aureus CIP 65.6 = test: MIC, microdilution method (9.1); type: cell-based, Staphylococcus aureus; details: Staphylococcus aureus, CIP65, read after 18 h, read-out: MIC
Description: as §1

S. aureus ATCC 6538 = test: MIC, microdilution method (9.1); type: cell-based, Staphylococcus aureus; details: Staphylococcus aureus, ATCC6538, read after 18 h, read-out: MIC
Description: as §1

[3] = tested on: S. aureus ATCC 33592 (MRSA); test: MIC, microdilution method (9.1); type: cell-based, Staphylococcus aureus; details: Staphylococcus aureus, read after 18 h, read-out: MIC
Description: as §1

[4] = tested on: S. aureus ATCC 106414 (VISA); test: MIC, microdilution method (9.1); type: cell-based, Staphylococcus aureus; details: Staphylococcus aureus, read after 18 h, read-out: MIC
Description: as §1

S. epidermidis CIP 81.55 = test: MIC, microdilution method (9.1); type: cell-based, Staphylococcus epidermidis; details: Staphylococcus epidermidis, CIP81, read after 18 h, read-out: MIC
Description: as §1

[5] = tested on: S. epidermidis ATCC 12228; test: MIC, microdilution method (9.1); type: cell-based, Staphylococcus epidermidis; details: Staphylococcus epidermidis, ATCC12228, read after 18 h, read-out: MIC
Description: as §1

[6] = tested on: S. epidermidis CIP 103627; test: MIC, microdilution method (9.1); type: cell-based, Staphylococcus epidermidis; details: Staphylococcus epidermidis, CIP103627, read after 18 h, read-out: MIC
Description: as §1

[7] = tested on: HCT116 (human colon tumor); test: In vitro cytotoxicity; type: cell-based; details: read-out: % of cellular growth inhibition; for inhibition at 10 µM: HCT-116, 10^−5 M; for inhibition at 1 µM: HCT-116, 10^−6 M
Description: (§2) In vitro cytotoxicity was assayed on three cell lines—KB (human mouth carcinoma), MCR5 (human lung fibroblast) and HCT116 (human colon tumor). Results are presented in table IV as % of cellular growth inhibition in presence of 10^−5 M and 10^−6 M of the tested bis-indolic derivatives.

[8] = tested on: KB (human mouth carcinoma); test: In vitro cytotoxicity; type: cell-based; details: read-out: % of cellular growth inhibition; for inhibition at 10 µM: 10^−5 M; for inhibition at 1 µM: 10^−6 M
Description: as §2

[9] = tested on: MRC5 (human lung fibroblast); test: In vitro cytotoxicity; type: cell-based; details: read-out: % of cellular growth inhibition; for inhibition at 10 µM: 10^−5 M; for inhibition at 1 µM: 10^−6 M
Description: as §2

| Structure (SMILES) | MIC (S. aureus SA-1199B) [µg/mL] | MIC (S. aureus CIP 103428) [µg/mL] | MIC (S. aureus ATCC 9144) [µg/mL] | MIC [2] [µg/mL] | MIC (S. aureus ATCC 25923) [µg/mL] | MIC (S. aureus ATCC 29213) [µg/mL] | MIC (S. aureus CIP 65.6) [µg/mL] | MIC (S. aureus ATCC 6538) [µg/mL] | MIC [3] [µg/mL] | MIC [4] [µg/mL] | MIC (S. epidermidis CIP 81.55) [µg/mL] | MIC [5] [µg/mL] | MIC [6] [µg/mL] | inhibition at 10 µM [7] [%] | inhibition at 1 µM [7] [%] | inhibition at 10 µM [8] [%] | inhibition at 1 µM [8] [%] | inhibition at 10 µM [9] [%] | inhibition at 1 µM [9] [%] | further results |
| --- | --- | --- | --- | --- | --- | --- | --- | --- | --- | --- | --- | --- | --- | --- | --- | --- | --- | --- | --- | --- |
| CC(C)(C)OC(=O)NCC(NC(=O)c1c[nH]c2ccccc12)c1c[nH]c2ccc(Br)cc12 (stereo not shown) [Compound 3b, tert-Butyl (2-(5-bromo-1H-indol-3-yl)-2-(1H-indole-3-carboxamido)ethyl)carbamate] | 8 (≈ 16.1 µM) | 8 (≈ 16.1 µM) | 8 (≈ 16.1 µM) | 8 (≈ 16.1 µM) | 8 (≈ 16.1 µM) | 8 (≈ 16.1 µM) | 8 (≈ 16.1 µM) | 8 (≈ 16.1 µM) | 8 (≈ 16.1 µM) | 8 (≈ 16.1 µM) | 8 (≈ 16.1 µM) | 8 (≈ 16.1 µM) | 8 (≈ 16.1 µM) | 30 ± 2 | 0 | 41 ± 6 | 0 | 8 ± 5 | 7 | IC50 ([1]; first value): 15 µM; IC50 ([1]; second value): 11.2 µM |
| CC(C)(C)OC(=O)NCC(NC(=O)c1c[nH]c2cc(Br)ccc12)c1c[nH]c2ccccc12 (stereo not shown) [Compound 3e, tert-Butyl (2-(1H-indol-3-yl)-2-(6-bromo-1H-indolyl-3-carboxamido)ethyl)carbamate] | 8 (≈ 16.1 µM) | 8 (≈ 16.1 µM) | 8 (≈ 16.1 µM) | 8 (≈ 16.1 µM) | 16 (≈ 32.2 µM) | 8 (≈ 16.1 µM) | 16 (≈ 32.2 µM) | 8 (≈ 16.1 µM) | 32 (≈ 64.3 µM) | 8 (≈ 16.1 µM) | 8 (≈ 16.1 µM) | 8 (≈ 16.1 µM) | 128 (≈ 257 µM) | 92 ± 1 | 2 | 99 ± 1 | 0 | 92 ± 6 | 0 | – |
| CC(NC(=O)c1c[nH]c2ccc(F)cc12)c1c[nH]c2ccc(Br)cc12 (stereo not shown) [Compound 5, N-(1-(5-bromo-1H-indol-3-yl)ethyl)-5-fluoro-1H-indole-3-carboxamide] | – | 16 (≈ 40 µM) | 16 (≈ 40 µM) | 16 (≈ 40 µM) | 16 (≈ 40 µM) | 16 (≈ 40 µM) | > 32 | 16 (≈ 40 µM) | 16 (≈ 40 µM) | 16 (≈ 40 µM) | 16 (≈ 40 µM) | 16 (≈ 40 µM) | 16 (≈ 40 µM) | – | – | – | – | – | – | – |
